# Target: T1, human CaSR (Homo sapiens, UniProt P41180)
# T1 sequence (P41180 20-1078): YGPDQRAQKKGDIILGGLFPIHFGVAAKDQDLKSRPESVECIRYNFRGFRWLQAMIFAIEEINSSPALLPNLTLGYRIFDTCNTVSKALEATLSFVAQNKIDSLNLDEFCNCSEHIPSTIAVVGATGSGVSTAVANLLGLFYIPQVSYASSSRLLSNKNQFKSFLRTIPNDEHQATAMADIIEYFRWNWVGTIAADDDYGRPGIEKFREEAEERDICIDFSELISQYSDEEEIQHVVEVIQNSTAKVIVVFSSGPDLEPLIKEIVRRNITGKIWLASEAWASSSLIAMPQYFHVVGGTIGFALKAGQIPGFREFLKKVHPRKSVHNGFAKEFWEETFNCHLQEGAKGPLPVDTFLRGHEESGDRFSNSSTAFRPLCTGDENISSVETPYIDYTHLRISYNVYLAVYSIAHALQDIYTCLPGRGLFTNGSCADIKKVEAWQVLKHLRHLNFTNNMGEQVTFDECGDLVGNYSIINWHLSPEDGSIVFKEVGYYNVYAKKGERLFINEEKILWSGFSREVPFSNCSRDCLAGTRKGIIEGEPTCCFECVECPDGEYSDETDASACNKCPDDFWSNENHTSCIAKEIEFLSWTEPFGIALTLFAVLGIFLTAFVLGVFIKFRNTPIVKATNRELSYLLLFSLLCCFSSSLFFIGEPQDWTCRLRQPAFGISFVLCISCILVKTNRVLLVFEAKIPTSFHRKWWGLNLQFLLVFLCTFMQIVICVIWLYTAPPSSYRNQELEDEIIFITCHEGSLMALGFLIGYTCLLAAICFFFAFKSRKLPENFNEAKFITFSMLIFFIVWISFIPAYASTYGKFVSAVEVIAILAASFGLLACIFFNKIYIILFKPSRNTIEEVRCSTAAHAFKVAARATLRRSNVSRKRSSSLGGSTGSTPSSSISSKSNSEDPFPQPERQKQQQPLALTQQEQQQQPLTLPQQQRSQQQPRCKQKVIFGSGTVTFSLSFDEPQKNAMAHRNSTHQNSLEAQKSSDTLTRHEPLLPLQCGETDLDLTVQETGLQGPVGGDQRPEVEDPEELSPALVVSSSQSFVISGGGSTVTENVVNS
# Test: Functional whole cell assay (modulation of human CaSR), IP1 accumulation in CHO-K1 cells
# Format: cell-based
# Conditions: CHO-K1 cells stably expressing human CaSR, final Ca2+ 1.9 mM, IP1 HTRF; concentration giving 50% of maximum agonistic response
# Excerpt: The assay investigates a compound's functional ability to act as a biological positive modulator on the human CaSR. Activation of the receptor expressed on CHO-K1 cells is detected through the G alpha q pathway, the activation of phospholipase C and the accumulation of intracellular inositol phosphate (IP) as described earlier [Sandrine Ferry, Bruno Chatel, Robert H. Dodd, Christine Lair, Danielle Gully, Jean-Pierre Maffrand, and Martial Ruat. Effects of Divalent Cations and of a Calcimimetic on Adrenocorticotropic Hormone Release in Pituitary Tumor Cells. Biochemical and biophysical research Communications 238, 866-873 (1997)]. The human CaSR is stably expressed on a CHO-K1 cell clone, stimulated with a basal level of calcium and challenged with the tested compound. The level of IP1 is determined using the IP-One Terbium htrf kit (Cisbio, France). CHO-K1 cells not transfected with the CaSR fail to elicit an IP1 response upon calcium and/or compound stimulation.
# The ORF coding for the human CaSR (genebank: NM_000388) was acquired from Invitrogen Corp, USA and subsequently cloned into the mammalian expression vector pCDA3.1.
# CHO-K1 cells were transfected using Lipofectamine according to manufacturer's protocol (400.000 cells/well were seeded in a 6-well plate and transfected after 24 hours using 2 μg DNA and 5 μl lipofectamine). After another 24 hours the cells were detached, seeded and subjected to 1 mg/ml of G-418. Following 7 days growth single clones were picked, the CaSR expression evaluated using the 5C10 antibody against CaSR, the clones with the highest expression were selected and tested for functional response. The preferred clone was cultured according to standard procedures described in ATCC (American Type Culture Collection) protocols for CHO-K1 with the addition of 500 μg/ml G-418.
# On the assay day, cells were thawed, harvested and resuspended to 4*10^6 cells/ml in stimulation buffer (containing: Hepes 10 mM, MgCl2 0.5 mM, KCl 4.2 mM, NaCl 146 mM, glucose 5.5 mM, LiCl 50 mM, BSA 0.5% at pH 7.4). Ten μl cell solution was pipetted into wells of a white 384-well plate (Perkin Elmer Optiplate) containing 2 μl compound diluted in assay buffer (containing: Hepes 10 mM, MgCl2 0.5 mM, KCl 4.2 mM, NaCl 146 mM, glucose 5.5 mM, LiCl 50 mM, CaCl2 11.4 mM at pH 7.4), resulting in a final Ca^2+ concentration of 1.9 mM. After compound stimulation for 1 hour at 37° C. and 15 min at room temperature, 10 ul of IP-One assay detection reagent (prepared as described by the IP-One assay kit manufacturer) was added and the plate was incubated for another 1 hour at room temperature. Finally the plate was read using a Perkin Elmer EnVision, according to the protocol supplied by the IP-One assay kit manufacturer. The FRET ratio was calculated by dividing the 665 nm emission signal with that of the 615 nm.
# The molar concentration of a compound that produces 50% of the maximum agonistic response (the […] value) is calculated according to the equation “General sigmoidal curve with Hill slope, a to d” (Equation 1). This model describes a sigmoidal curve with an adjustable baseline. The equation can be used to fit curves where response is either increasing or decreasing with respect to the independent variable, X.
# y=(a−d)/(1+(x/c)̂b)+d Equation 1.
row,SMILES,EC50 [nM]
1,"COc1cc([C@@H](C)N[C@H]2CC[C@@H](c3ccc(C(=O)NCCNC(=O)c4nc[nH]n4)cc3)C2)ccc1F [Compound 101, N-[2-[[4-[(1R,3S)-3-[[(1R)-1-(4-Fluoro-3-methoxy-phenyl)ethyl]-amino]cyclopentyl]benzoyl]amino]ethyl]-1H-1,2,4-triazole-3-carboxamide]",< 200
2,"COc1cc([C@@H](C)N[C@H]2CC[C@@H](c3ccc(C(=O)NCCNC(=O)C(O)CO)cc3)C2)ccc1F (stereo partly drawn) [Compound 102, N-[2-(2,3-Dihydroxypropanoylamino)ethyl]-4-[(1R,3S)-3-[[(1R)-1-(4-fluoro-3-methoxy-phenyl)ethyl]amino]cyclopentyl]benzamide]",200 to 1000
3,"COc1cc([C@@H](C)N[C@H]2CC[C@@H](c3ccc(C(=O)NCCNC(=O)CO)cc3)C2)ccc1F [Compound 103, 4-[(1R,3S)-3-[[(1R)-1-(4-Fluoro-3-methoxy-phenyl)ethyl]amino]cyclopentyl]-N-[2-[(2-hydroxyacetyl)amino]ethyl]benzamide]",< 200
4,"COc1cc([C@@H](C)N[C@H]2CC[C@@H](c3ccc(C(=O)NCCNC(=O)C(N)=O)cc3)C2)ccc1F [Compound 104, N-[2-[[4-[(1R,3S)-3-[[(1R)-1-(4-Fluoro-3-methoxy-phenyl)ethyl]amino]cyclopentyl]benzoyl]amino]ethyl]oxamide]",< 200
5,"COc1cc([C@@H](C)N[C@H]2CC[C@@H](c3ccc(C(=O)NCCNC(=O)CS(C)(=O)=O)cc3)C2)ccc1F [Compound 105, 4-[(1R,3S)-3-[[(1R)-1-(4-Fluoro-3-methoxy-phenyl)ethyl]amino]-cyclopentyl]-N-[2-[(2-methylsulfonylacetyl)amino]ethyl]benzamide]",< 200

# Reference: patent publication US20130245084A1, “CALCIUM-SENSING RECEPTOR-ACTIVE COMPOUNDS” (LEO PHARMA A/S, priority 2010, published 2013)
